{"source": "patent US9113629B2", "about": "“4-amino-6-(4-substituted-phenyl)-picolinates and 6-amino-2-(4-substituted-phenyl)-pyrimidine-4-carboxylates and their use as herbicides” (DOW AGROSCIENCES LLC, priority 2013, dated 2015)", "key": {"[1]": {"test_system": "MATSS: scented mayweed (Matricaria chamomilla), pineappleweed (Matricaria matricarioides)", "experiment": "Post-emergent Test III, herbicidal activity in wheat and barley", "format": "in vivo", "method_in_brief": "(§1)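 GR20, GR50, GR80 and GR90 come from probit analysis of visual injury scores (0 = none, 100 = complete kill) taken 21 d after treatment. Foliar application was by track sprayer delivering 187 L/ha at five rates, from high down to 1/16×, onto greenhouse plants at the 2–3 leaf stage, with solvent-blank controls.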"}, "[2]": {"test_system": "TRZSS: wheat, including spring and winter (Triticum aestivum)", "experiment": "Post-emergent Test III, herbicidal activity in wheat and barley", "format": "in vivo", "method_in_brief": "as §1"}, "[3]": {"test_system": "APESV: bentgrass (Apera spica-venti)", "experiment": "Post-emergent Test III, herbicidal activity in wheat and barley", "format": "in vivo", "method_in_brief": "as §1"}, "[4]": {"test_system": "LOLSS: ryegrass including, Italian ryegrass (Lolium multiflorum), rigid ryegrass (Lolium rigidum), annual ryegrass (Lolium multiflorum subsp. Gaudini)", "experiment": "Post-emergent Test III, herbicidal activity in wheat and barley", "format": "in vivo", "settings": "probit analysis, 21 days after application", "method_in_brief": "as §1"}, "[5]": {"experiment": "Post-emergent Test III, herbicidal activity in wheat and barley", "format": "in vivo, Lolium multiflorum, Lolium rigidum", "settings": "Lolium multiflorum, post-emergence, 504 h, read-out: Visual Growth Reduction (%) 21 Days After Application LOLSS", "method_in_brief": "as §1"}, "LAMSS": {"test_system": "LAMSS", "experiment": "Post-emergent Test III, herbicidal activity in wheat and barley", "format": "in vivo", "method_in_brief": "as §1"}, "[6]": {"test_system": "KCHSC: kochia (Kochia scoparia)", "experiment": "Post-emergent Test III, herbicidal activity in wheat and barley", "format": "in vivo", "method_in_brief": "as §1"}, "[7]": {"test_system": "VERPE: bird's-eye speedwell (veronica persica)", "experiment": "Post-emergent Test III, herbicidal activity in wheat and barley", "format": "in vivo", "method_in_brief": "as §1"}, "[8]": {"test_system": "HORSS: barley, including spring and winter (Hordeum vulgare)", "experiment": "Post-emergent Test III, herbicidal activity in wheat and barley", "format": "in vivo", "method_in_brief": "as §1"}, "[9]": {"settings": "probit analysis, dose for growth reduction of 50 percent, 21 days after application"}, "[10]": {"settings": "probit analysis, dose for growth reduction of 80 percent, 21 days after application"}, "[11]": {"settings": "probit analysis, dose for growth reduction of 20 percent, 21 days after application, crop"}}, "data": [{"smiles": "Nc1c(F)c(-c2ccc(Cl)c(F)c2)nc(C(=O)O)c1Cl", "note": "[Compound 217]", "values": [{"measurement": "pest or weed control at 35 g/ha", "setting": "[1]; Matricaria chamomilla, post-emergence, 504 h, 35 g ai/ha, read-out: Visual Growth Reduction (%) 21 Days After Application MATSS", "result": "85 to 94", "unit": "%"}, {"measurement": "pest or weed control at 70 g/ha", "setting": "[1]; Matricaria chamomilla, post-emergence, 504 h, 70 g ai/ha, read-out: Visual Growth Reduction (%) 21 Days After Application MATSS", "result": "85 to 94", "unit": "%"}, {"measurement": "pest or weed control at 140 g/ha", "setting": "[1]; Matricaria chamomilla, post-emergence, 504 h, 140 g ai/ha, read-out: Visual Growth Reduction (%) 21 Days After Application MATSS", "result": "85 to 94", "unit": "%"}, {"measurement": "GR50 MATSS", "setting": "[1]; [9]", "result": 34, "unit": "g ai/ha"}, {"measurement": "GR80 MATSS", "setting": "[1]; [10]", "result": ">140", "unit": "g ai/ha"}, {"measurement": "pest or weed control at 35 g/ha", "setting": "[2]; Triticum aestivum, post-emergence, 504 h, 35 g ai/ha, read-out: Visual Growth Reduction (%) 21 Days After Application TRZSS", "result": "75 to 84", "unit": "%"}, {"measurement": "pest or weed control at 70 g/ha", "setting": "[2]; Triticum aestivum, post-emergence, 504 h, 70 g ai/ha, read-out: Visual Growth Reduction (%) 21 Days After Application TRZSS", "result": "75 to 84", "unit": "%"}, {"measurement": "pest or weed control at 140 g/ha", "setting": "[2]; Triticum aestivum, post-emergence, 504 h, 140 g ai/ha, read-out: Visual Growth Reduction (%) 21 Days After Application TRZSS", "result": "85 to 94", "unit": "%"}, {"measurement": "GR20 TRZSS", "setting": "[2]; [11]", "result": 2, "unit": "g ai/ha"}, {"measurement": "pest or weed control at 35 g/ha", "setting": "[3]; Apera spica-venti, post-emergence, 504 h, 35 g ai/ha, read-out: Visual Growth Reduction (%) 21 Days After Application APESV", "result": "85 to 94", "unit": "%"}, {"measurement": "pest or weed control at 70 g/ha", "setting": "[3]; Apera spica-venti, post-emergence, 504 h, 70 g ai/ha, read-out: Visual Growth Reduction (%) 21 Days After Application APESV", "result": "85 to 94", "unit": "%"}, {"measurement": "pest or weed control at 140 g/ha", "setting": "[3]; Apera spica-venti, post-emergence, 504 h, 140 g ai/ha, read-out: Visual Growth Reduction (%) 21 Days After Application APESV", "result": "95 to 100", "unit": "%"}, {"measurement": "GR50 APESV", "setting": "[3]; [9]", "result": 6, "unit": "g ai/ha"}, {"measurement": "GR80 APESV", "setting": "[3]; [10]", "result": 15, "unit": "g ai/ha"}, {"measurement": "GR50 LOLSS", "setting": "[4]; dose for growth reduction of 50 percent", "result": 32, "unit": "g ai/ha"}, {"measurement": "GR80 LOLSS", "setting": "[4]; dose for growth reduction of 80 percent", "result": ">140", "unit": "g ai/ha"}, {"measurement": "pest or weed control at 35 g/ha", "setting": "[5]; 35 g ai/ha", "result": "45 to 59", "unit": "%"}, {"measurement": "pest or weed control at 70 g/ha", "setting": "[5]; 70 g ai/ha", "result": "60 to 74", "unit": "%"}, {"measurement": "pest or weed control at 140 g/ha", "setting": "[5]; 140 g ai/ha", "result": "60 to 74", "unit": "%"}, {"measurement": "pest or weed control at 35 g/ha", "setting": "LAMSS; post-emergence, 504 h, 35 g ai/ha, read-out: Visual Growth Reduction (%) 21 Days After Application LAMSS", "result": "95 to 100", "unit": "%"}, {"measurement": "pest or weed control at 70 g/ha", "setting": "LAMSS; post-emergence, 504 h, 70 g ai/ha, read-out: Visual Growth Reduction (%) 21 Days After Application LAMSS", "result": "95 to 100", "unit": "%"}, {"measurement": "pest or weed control at 140 g/ha", "setting": "LAMSS; post-emergence, 504 h, 140 g ai/ha, read-out: Visual Growth Reduction (%) 21 Days After Application LAMSS", "result": "95 to 100", "unit": "%"}, {"measurement": "GR50 LAMSS", "setting": "LAMSS; [9]", "result": 1, "unit": "g ai/ha"}, {"measurement": "GR80 LAMSS", "setting": "LAMSS; [10]", "result": 2, "unit": "g ai/ha"}, {"measurement": "pest or weed control at 35 g/ha", "setting": "[6]; Bassia scoparia, post-emergence, 504 h, 35 g ai/ha, read-out: Visual Growth Reduction (%) 21 Days After Application KCHSC", "result": "85 to 94", "unit": "%"}, {"measurement": "pest or weed control at 70 g/ha", "setting": "[6]; Bassia scoparia, post-emergence, 504 h, 70 g ai/ha, read-out: Visual Growth Reduction (%) 21 Days After Application KCHSC", "result": "95 to 100", "unit": "%"}, {"measurement": "pest or weed control at 140 g/ha", "setting": "[6]; Bassia scoparia, post-emergence, 504 h, 140 g ai/ha, read-out: Visual Growth Reduction (%) 21 Days After Application KCHSC", "result": "95 to 100", "unit": "%"}, {"measurement": "GR50 KCHSC", "setting": "[6]; [9]", "result": 2, "unit": "g ai/ha"}, {"measurement": "GR80 KCHSC", "setting": "[6]; [10]", "result": 6, "unit": "g ai/ha"}, {"measurement": "pest or weed control at 35 g/ha", "setting": "[7]; Veronica persica, post-emergence, 504 h, 35 g ai/ha, read-out: Visual Growth Reduction (%) 21 Days After Application VERPE", "result": "60 to 74", "unit": "%"}, {"measurement": "pest or weed control at 70 g/ha", "setting": "[7]; Veronica persica, post-emergence, 504 h, 70 g ai/ha, read-out: Visual Growth Reduction (%) 21 Days After Application VERPE", "result": "60 to 74", "unit": "%"}, {"measurement": "pest or weed control at 140 g/ha", "setting": "[7]; Veronica persica, post-emergence, 504 h, 140 g ai/ha, read-out: Visual Growth Reduction (%) 21 Days After Application VERPE", "result": "60 to 74", "unit": "%"}, {"measurement": "GR50 VERPE", "setting": "[7]; [9]", "result": 19, "unit": "g ai/ha"}, {"measurement": "GR80 VERPE", "setting": "[7]; [10]", "result": 73, "unit": "g ai/ha"}, {"measurement": "pest or weed control at 35 g/ha", "setting": "[8]; Hordeum vulgare, post-emergence, 504 h, 35 g ai/ha, read-out: Visual Growth Reduction (%) 21 Days After Application HORSS", "result": "75 to 84", "unit": "%"}, {"measurement": "pest or weed control at 70 g/ha", "setting": "[8]; Hordeum vulgare, post-emergence, 504 h, 70 g ai/ha, read-out: Visual Growth Reduction (%) 21 Days After Application HORSS", "result": "75 to 84", "unit": "%"}, {"measurement": "pest or weed control at 140 g/ha", "setting": "[8]; Hordeum vulgare, post-emergence, 504 h, 140 g ai/ha, read-out: Visual Growth Reduction (%) 21 Days After Application HORSS", "result": "75 to 84", "unit": "%"}, {"measurement": "GR20 HORSS", "setting": "[8]; [11]", "result": 7, "unit": "g ai/ha"}]}]}
